In PubChem BioAssay AID1918935 (Molecular Pharmacology Branch, DTP, NCI, 2023):

Test system: 324938-238-R-J1-PDC complex spheroid viability
Test: Anticancer human tumor 324938-238-R-J1-PDC patient-derived bladder carcinoma cell line growth inhibition
Conditions: for IC50: curve of first compound; for viability, T/C: stronger effect = lower value
How it was run: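 Complex spheroids of tumor cells with HUVEC and human MSCs, exposed to iadademstat combined with other agents. Each agent tested in half-log steps from near clinical Cmax (else 10 microM top), DMSO ≤0.25%.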

[1] = second compound 0.1 µM, first compound 0.000316 µM
[2] = second compound 0.1 µM, first compound 0.001 µM
[3] = second compound 0.1 µM, first compound 0.00316 µM
[4] = second compound 0.1 µM, first compound 0.01 µM
[5] = second compound 0.1 µM, first compound 0.0316 µM
[6] = second compound 0.1 µM, first compound 0.1 µM
[7] = second compound 0.316 µM, first compound 0.000316 µM
[8] = second compound 0.316 µM, first compound 0.001 µM
[9] = second compound 0.316 µM, first compound 0.00316 µM
[10] = second compound 0.316 µM, first compound 0.01 µM
[11] = second compound 0.316 µM, first compound 0.0316 µM
[12] = second compound 0.316 µM, first compound 0.1 µM
[13] = second compound 1 µM, first compound 0.000316 µM
[14] = second compound 1 µM, first compound 0.001 µM
[15] = second compound 1 µM, first compound 0.00316 µM
[16] = second compound 1 µM, first compound 0.01 µM
[17] = second compound 1 µM, first compound 0.0316 µM
[18] = second compound 1 µM, first compound 0.1 µM
[19] = second compound 3.16 µM, first compound 0.000316 µM
[20] = second compound 3.16 µM, first compound 0.001 µM
[21] = second compound 3.16 µM, first compound 0.00316 µM
[22] = second compound 3.16 µM, first compound 0.01 µM
[23] = second compound 3.16 µM, first compound 0.0316 µM
[24] = second compound 3.16 µM, first compound 0.1 µM
[25] = second compound 10 µM, first compound 0.000316 µM
[26] = second compound 10 µM, first compound 0.001 µM
[27] = second compound 10 µM, first compound 0.00316 µM
[28] = second compound 10 µM, first compound 0.01 µM
[29] = second compound 10 µM, first compound 0.0316 µM
[30] = second compound 10 µM, first compound 0.1 µM
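Also: spheroids also contain HUVEC and human MSCs and agents combined with iadademstat; spheroids exposed to agents for 7 days before readout.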

| Compound | IC50 (second compound 0.1 µM) [nM] | IC50 (second compound 0.316 µM) [nM] | IC50 (second compound 1 µM) [nM] | IC50 (second compound 3.16 µM) [nM] | IC50 (second compound 10 µM) [nM] | viability, T/C [1] [%] | viability, T/C [2] [%] | viability, T/C [3] [%] | viability, T/C [4] [%] | viability, T/C [5] [%] | viability, T/C [6] [%] | viability, T/C [7] [%] | viability, T/C [8] [%] | viability, T/C [9] [%] | viability, T/C [10] [%] | viability, T/C [11] [%] | viability, T/C [12] [%] | viability, T/C [13] [%] | viability, T/C [14] [%] | viability, T/C [15] [%] | further results |
| --- | --- | --- | --- | --- | --- | --- | --- | --- | --- | --- | --- | --- | --- | --- | --- | --- | --- | --- | --- | --- | --- |
| CC(C)CC(NC(=O)C(Cc1ccccc1)NC(=O)c1cnccn1)B(O)O (stereo not given) + NC1CC1c1ccc(-c2cccc(O)c2)cc1 | 0.458 | 0.404 | 0.364 | 0.389 | 0.34 | 68.2 | 12.1 | 0.5 | 2.29 | 0.55 | 0.16 | 62 | 5.56 | 0.25 | 0.3 | 0.26 | 0.14 | 56 | 6.79 | 0.15 | viability, T/C [16]: 0.61%; viability, T/C [17]: 0.07%; viability, T/C [18]: 0.17%; viability, T/C [19]: 59.2%; viability, T/C [20]: 7.68%; viability, T/C [21]: 0.39%; viability, T/C [22]: 0.28%; viability, T/C [23]: 0.28%; viability, T/C [24]: 0.14%; viability, T/C [25]: 53.1%; viability, T/C [26]: 4.57%; viability, T/C [27]: 0.15%; viability, T/C [28]: 0.15%; viability, T/C [29]: 0.16%; viability, T/C [30]: 0.21% |
| CC(C)CC(NC(=O)CNC(=O)c1cc(Cl)ccc1Cl)B1OC(=O)CC(CC(=O)O)(C(=O)O)O1 (stereo not given) + NC1CC1c1ccc(-c2cccc(O)c2)cc1 | 1.65 | 1.39 | 1.39 | 1.36 | 1.18 | 94.4 | 68.7 | 25.7 | 5.88 | 3.13 | 0.16 | 73 | 59.3 | 26.3 | 4.54 | 0.95 | 0.15 | 78.3 | 61.5 | 21.6 | viability, T/C [16]: 4.36%; viability, T/C [17]: 0.4%; viability, T/C [18]: 1.08%; viability, T/C [19]: 77.5%; viability, T/C [20]: 58.5%; viability, T/C [21]: 26.3%; viability, T/C [22]: 5.45%; viability, T/C [23]: 0.71%; viability, T/C [24]: 1.92%; viability, T/C [25]: 67.7%; viability, T/C [26]: 54.7%; viability, T/C [27]: 20.6%; viability, T/C [28]: 2.92%; viability, T/C [29]: 0.54%; viability, T/C [30]: 0.22% |
